Laboratory results taken from patent US10160729B2, “Hsp70 modulators and methods for making and using the same” (Memorial Sloan Kettering Cancer Center, priority 2014, dated 2018).

These molecules were tested on MOLM-13 cells (assay: Caspase cleavage assay (Caspase3, 7 activation)). Settings: Homo sapiens, 16 h treatment, caspase substrate Z-DEVD-R110, read-out: c* Concentration at which 50% of the maximum signal was achieved (caspase activation).
Assay type: cell-based
How it was run: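 Cells (30,000/well, RPMI) treated 16 h with compound or DMSO in triplicate, then given buffer with 10 mM HEPES pH 7.5, 2 mM EDTA, 0.1% CHAPS and 25 μM Z-DEVD-R110. Fluorescence read once signal stabilized; results given as percentage increase in apoptotic cells versus DMSO-treated control.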

SMILES	EC50
CN1CCN(c2ncc(Sc3ccc(C(N)=O)cc3)c(OCc3cccc(I)c3)n2)CC1 [100s, 4-((4-((3-Iodobenzyl)oxy)-2-(4-methylpiperazin-1-yl)pyrimidin-5-yl)thio)benzamide]	200 to 400 nM
Cc1cc(Sc2cnc(N3CCN(C)CC3)nc2OCc2ccccc2)ccc1C(N)=O [compound 74, 4-((4-(Benzyloxy)-2-(4-methylpiperazin-1-yl)pyrimidin-5-yl)thio)-2-methylbenzamide]	400 to 1000 nM
COc1ccc(COc2nc(N3CCN(C)CC3)ncc2Oc2ccc(C(N)=O)cc2)cc1 [compound 283, 4-((4-((4-Methoxybenzyl)oxy)-2-(4-methylpiperazin-1-yl)pyrimidin-5-yl)oxy)benzamide]	≥ 1200 nM
COc1cccc(COc2nc(N3CC4CC3CN4C)ncc2Sc2ccc(C(N)=O)cc2)c1 (stereo not drawn) [compound 195]	≥ 1200 nM
CN(C)[C@@H]1CCN(c2ncc(Sc3ccc(C(N)=O)cc3)c(OCc3cccc(OC(F)(F)F)c3)n2)C1 [compound 205, (R)-4-((2-(3-(Dimethylamino)pyrrolidin-1-yl)-4-((3-(trifluoromethoxy)benzyl)oxy)pyrimidin-5-yl)thio)benzamide]	400 to 1000 nM
COc1cccc(COc2nc(N3CCN(C4COC4)CC3)ncc2Sc2ccc(C(N)=O)cc2)c1 [190r, 4-((4-((3-Methoxybenzyl)oxy)-2-(4-(oxetan-3-yl)piperazin-1-yl)pyrimidin-5-yl)thio)benzamide]	200 to 400 nM
COc1cccc(COc2nc(N3CCN(C(C)(C)C4CC4)CC3)ncc2Sc2ccc(C(N)=O)cc2)c1 [compound 313, 4-((2-(4-(2-Cyclopropylpropan-2-yl)piperazin-1-yl)-4-((3-methoxybenzyl)oxy)pyrimidin-5-yl)thio)benzamide]	≥ 1200 nM
CC(=O)N1CCN(c2ncc(Sc3ccc(C(N)=O)cc3)c(OCc3ccccc3)n2)CC1 [compound 168, 4-((2-(4-Acetylpiperazin-1-yl)-4-(benzyloxy)pyrimidin-5-yl)thio)benzamide]	≥ 1200 nM
C#CCN1CCN(c2ncc(Sc3ccc(C(N)=O)cc3)c(OCc3cccc(Cl)c3)n2)CC1 [compound 348, 4-((4-((3-Chlorobenzyl)oxy)-2-(4-(prop-2-yn-1-yl)piperazin-1-yl)pyrimidin-5-yl)thio)benzamide]	400 to 1000 nM
CN1CCN(c2ncc(Sc3ccc(C(=O)O)cc3)c(OCc3ccccc3)n2)CC1 [compound 81, 4-((4-(Benzyloxy)-2-(4-methylpiperazin-1-yl)pyrimidin-5-yl)thio)benzoic acid]	1000 to 1200 nM
COc1ccnc(COc2nc(N3CCN(C)CC3)ncc2Sc2ccc(C(N)=O)c(Cl)c2)c1 [compound 126, 2-Chloro-4-((4-((4-methoxypyridin-2-yl)methoxy)-2-(4-methylpiperazin-1-yl)pyrimidin-5-yl)thio)benzamide]	200 to 400 nM
C#CCN1CCN(c2ncc(Sc3ccc(C(N)=O)cc3)c(OCc3cccc(N(C)C)c3)n2)CC1 [compound 336, 4-((4-((3-(Dimethylamino)benzyl)oxy)-2-(4-(prop-2-yn-1-yl)piperazin-1-yl)pyrimidin-5-yl)thio)benzamide]	< 200 nM
CN(C)[C@H]1CCN(c2ncc(Sc3ccc(C(N)=O)cc3)c(OCc3ccccc3)n2)C1 [179c, (S)-4-((4-(Benzyloxy)-2-(3-(dimethylamino)pyrrolidin-1-yl)pyrimidin-5-yl)thio)benzamide]	≥ 1200 nM
CN(C)c1cccc(COc2nc(N3CCOCC3)ncc2Sc2ccc(C(N)=O)cc2)c1 [185a, 4-((4-((3-(Dimethylamino)benzyl)oxy)-2-morpholinopyrimidin-5-yl)thio)benzamide]	1000 to 1200 nM
COc1cccc(COc2nc(N3CCN([C@@H](C)C4CC4)CC3)ncc2Sc2ccc(C(N)=O)cc2)c1 [compound 315, (S)-4-((2-(4-(1-Cyclopropylethyl)piperazin-1-yl)-4-((3-methoxybenzyl)oxy)pyrimidin-5-yl)thio)benzamide]	1000 to 1200 nM
CN1CCN(c2ncc(Sc3ccc(C(N)=O)cc3)c(OCc3cccc(-n4cccn4)c3)n2)CC1 [100f, 4-((4-((3-(1H-Pyrazol-1-yl)benzyl)oxy)-2-(4-methylpiperazin-1-yl)pyrimidin-5-yl)thio)benzamide]	400 to 1000 nM
COc1cccc(COc2nc(N3CC(N(C)C)C3)ncc2Sc2ccc(C(N)=O)cc2)c1 [190m, 4-((2-(3-(Dimethylamino)azetidin-1-yl)-4-((3-methoxybenzyl)oxy)pyrimidin-5-yl)thio)benzamide]	< 200 nM
CN1CCN(c2ncc(Sc3ccc(N)nc3)c(OCc3ccc(F)c(C(F)(F)F)c3)n2)CC1 [compound 156, 5-((4-((4-Fluoro-3-(trifluoromethyl)benzyl)oxy)-2-(4-methylpiperazin-1-yl)pyrimidin-5-yl)thio)pyridin-2-amine]	200 to 400 nM
CC(Oc1ccc(Sc2cnc(N3CCN(C)CC3)nc2OCc2ccccc2)cc1)C(N)=O (stereo not drawn) [compound 65, 2-(4-((4-(Benzyloxy)-2-(4-methylpiperazin-1-yl)pyrimidin-5-yl)thio)phenoxy)propanamide]	400 to 1000 nM
COc1cc(COc2nc(N3CCN(C)CC3)ncc2Sc2ccc(C(N)=O)c(Cl)c2)ccn1 [compound 124, 2-Chloro-4-((4-((2-methoxypyridin-4-yl)methoxy)-2-(4-methylpiperazin-1-yl)pyrimidin-5-yl)thio)benzamide]	< 200 nM
CN1CCN(c2ncc(Sc3ccc(C(N)=O)c(C(F)(F)F)c3)c(OCc3cc(Cl)ccc3F)n2)CC1 [compound 133, 4-((4-((5-Chloro-2-fluorobenzyl)oxy)-2-(4-methylpiperazin-1-yl)pyrimidin-5-yl)thio)-2-(trifluoromethyl)benzamide]	< 200 nM
C#CCCCCN1CCN(c2ncc(Sc3ccc(C(N)=O)cc3)c(OCc3cccc(OC)c3)n2)CC1 [190j, 4-((2-(4-(Hex-5-yn-1-yl)piperazin-1-yl)-4-((3-methoxybenzyl)oxy)pyrimidin-5-yl)thio)benzamide]	< 200 nM
CN(C)[C@@H]1CCN(c2ncc(Sc3ccc(C(N)=O)c(C(F)(F)F)c3)c(OCc3cccc(Cl)c3)n2)C1 [compound 218, (R)-4-((4-((3-Chlorobenzyl)oxy)-2-(3-(dimethylamino)pyrrolidin-1-yl)pyrimidin-5-yl)thio)-2-(trifluoromethyl)benzamide]	< 200 nM
CN1CCN(c2ncc(Sc3ccc(C=O)cc3)c(OCc3ccccc3)n2)CC1 [compound 45, 4-((4-(Benzyloxy)-2-(4-methylpiperazin-1-yl)pyrimidin-5-yl)thio)benzaldehyde]	200 to 400 nM
COc1cccc(COc2nc(N3CCN(C4CC4)CC3)ncc2Sc2ccc(C(N)=O)cc2)c1 [190p, 4-((2-(4-Cyclopropylpiperazin-1-yl)-4-((3-methoxybenzyl)oxy)pyrimidin-5-yl)thio) benzamide]	< 200 nM
COc1cccc(COc2nc(N3CCN(C)CC3)ncc2Sc2ccc(C(N)=O)c(C(F)(F)F)c2)c1 [compound 136, 4-((4-((3-Methoxybenzyl)oxy)-2-(4-methylpiperazin-1-yl)pyrimidin-5-yl)thio)-2-(trifluoromethyl)benzamide]	< 200 nM
CN(C)[C@@H]1CCN(c2ncc(Sc3ccc(C(N)=O)cc3)c(OCc3cccc(Cl)c3)n2)C1 [compound 365, (R)-4-((4-((3-Chlorobenzyl)oxy)-2-(3-(dimethylamino)pyrrolidin-1-yl)pyrimidin-5-yl)thio)benzamide]	200 to 400 nM
